Data published in patent US20070254952A1, “CANNABINOID RECEPTOR MODULATORS” (priority 2006, published 2007).
pKi: −log10 of the molar value.

Key:
[1] = molecular target: T1, CB1 receptor (Homo sapiens, UniProt P21554); test: Competition binding assay for cannabinoid CB1 affinity (3H-CP55,940 displacement, membranes); details: membranes from cells expressing the receptor, 0.5 nM 3H-CP55,940; Ki by Cheng and Prusoff
T1 construct: purchased
Protocol: (§1) Competition binding assays for cannabinoid CB1 and CB2 affinity were performed by incubating commercially purchased membranes prepared from cells expressing each receptor subtype (8 μg pro) with 0.5 nM ^3H-CP55,940, a non-selective cannabinoid agonist, along with concentrations of drug ranging from 0.0001-3 μM in Buffer A (5 mM MgCl2, 2.5 mM EDTA and […] BSA). Non-specific binding was defined in the presence of 10 μM CP55,940. For saturation studies, concentrations of ^3H-CP55,940 ranging from 0.1-5 nM were incubated with membranes in the presence and absence of 10 μM CP55,940. Assays were terminated after incubation for 1½ hours by rapid filtration onto 0.3% polyethylenamine treated GF/C filterplates using a BRANDEL cell harvester. The plates were dried and MICROSCINT scintillation cocktail was added, after which the bound radioactivity was quantified using a TOPCOUNT scintillation counter.
(§2) The dissociation constant (Kd) of ^3H-CP55,940 at the CB1 and CB2 receptor were determined by plotting specific binding at each concentration of radioligand, and analysis by non-linear regression. For competition studies, the concentration of each drug that inhibited 50 percent of ^3H-CP55,940 binding (IC50) was determined by non-linear regression analysis of the radioligand displacement curves. Affinity constants (Ki) were calculated using the equation derived by Cheng and Prusoff (1973), defined as: IC50/1+[conc. ligand/Kd].

[2] = molecular target: T2, CB2 receptor (Homo sapiens, UniProt P34972); test: Competition binding assay for cannabinoid CB2 affinity (3H-CP55,940 displacement, membranes); details: membranes from cells expressing the receptor, 0.5 nM 3H-CP55,940; Ki by Cheng and Prusoff
T2 construct: purchased
T2 sequence (P34972 whole entry): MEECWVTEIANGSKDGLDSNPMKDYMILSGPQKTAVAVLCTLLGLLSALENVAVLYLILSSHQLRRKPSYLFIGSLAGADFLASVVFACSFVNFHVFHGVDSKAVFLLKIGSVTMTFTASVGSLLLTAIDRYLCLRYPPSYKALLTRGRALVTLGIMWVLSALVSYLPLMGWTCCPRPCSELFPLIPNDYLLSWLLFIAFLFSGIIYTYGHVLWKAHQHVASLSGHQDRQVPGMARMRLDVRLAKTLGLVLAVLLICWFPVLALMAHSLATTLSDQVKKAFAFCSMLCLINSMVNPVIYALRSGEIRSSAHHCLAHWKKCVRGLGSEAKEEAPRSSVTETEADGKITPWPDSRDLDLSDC
Protocol: as §1, §2

T1 sequence (P21554 whole entry): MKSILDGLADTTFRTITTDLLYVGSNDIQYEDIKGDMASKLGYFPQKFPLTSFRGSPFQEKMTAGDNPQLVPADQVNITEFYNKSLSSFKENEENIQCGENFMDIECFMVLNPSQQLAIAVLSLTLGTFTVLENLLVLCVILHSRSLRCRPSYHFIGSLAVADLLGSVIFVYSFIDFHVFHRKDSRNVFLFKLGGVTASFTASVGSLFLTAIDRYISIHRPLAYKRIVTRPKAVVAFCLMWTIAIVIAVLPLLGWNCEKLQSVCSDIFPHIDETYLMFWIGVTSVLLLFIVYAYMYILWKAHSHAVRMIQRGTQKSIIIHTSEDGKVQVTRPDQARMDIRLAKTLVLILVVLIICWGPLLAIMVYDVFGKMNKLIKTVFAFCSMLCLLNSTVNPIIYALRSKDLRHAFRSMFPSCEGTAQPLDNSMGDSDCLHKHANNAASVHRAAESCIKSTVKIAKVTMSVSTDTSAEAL

Structure (SMILES) | pKi [1] | pKi [2]
N#Cc1ccc(NC[C@H]2C[C@H](c3ccc(Cl)cc3)[C@H](c3ccc(Cl)cc3Cl)C2)cc1 [Compound 16] | < 5.82 | < 5.82
Fc1ccc(OC[C@@H]2C[C@H](c3ccc(Cl)cc3)[C@H](c3ccc(Cl)cc3Cl)C2)cc1F [Compound 17] | 7.90 | < 5.74
N#Cc1ccc(OC[C@@H]2C[C@H](c3ccc(Cl)cc3)[C@H](c3ccc(Cl)cc3Cl)C2)cc1 [Compound 18] | 8.73 | < 5.82
N#Cc1ccc(CNC[C@@H]2C[C@H](c3ccc(Cl)cc3)[C@H](c3ccc(Cl)cc3Cl)C2)cc1 [Compound 14] | 7.90 | < 5.74
N#Cc1ccc(NC[C@@H]2C[C@H](c3ccc(Cl)cc3)[C@H](c3ccc(Cl)cc3Cl)C2)cc1 [Compound 15] | 9.00 | < 5.82
